Earlier results on five compounds are cited in patent publication US6790445B1, “Preservatives for vaccines” (Merck & Co., Inc., priority 1997, dated 2004).

Data set [1] deals with rats.
Data set [2] relates to rabbits.
For data set [3] the following is noted: in vivo.
The conditions of data set [4]: at 4° C.
The subject of data set [5] is population. The following applies: in vivo.
Data set [6] concerns mice. The following applies: intraperitoneally.

SMILES strings stand for the structures.

With `OCCOc1ccccc1` [2-Phenoxyethanol, 2-phenoxyethanol], the “acute oral LD50” value in data set [1] is 1.26 to 2.33 mL/kg. Besides, the “acute dermal LD50” value in data set [2] is on record as 2.0 mL/kg.
For `OCc1ccccc1` [Benzyl Alcohol, benzyl alcohol], the probable lethal dose in data set [3] was 500 to 5000 mg/kg.
In the case of `N[C@@H](Cc1c[nH]cn1)C(=O)O` [histidine, L-histidine], the pKa (as a rule, the negative logarithm of the acid dissociation constant) in data set [4] is on record as 7.
On to `C[CH2][Hg][S]c1ccccc1C(=O)[O-].[Na+]` [Thimerosal], for which the “allergic reaction, share of the population” value in data set [5] is “about sixteen”.
As to `COC(=O)c1ccc(O)cc1` [Methyl Paraben, methyl paraben], the LD50 (as a rule, the dose at which mortality reaches 50%) in data set [6] was 1000 mg/kg.
